In brackets after ≈: the same amount, converted by molar mass. Where two headings read alike, the source gives them in different places.
How the values were obtained:
Assay type in all cases: cell-based
C. parapsilosis GC 3075 = assay: Antifungal activity, microtiter broth dilution MIC; conditions: 24-48 hours; for ANTIFUNGAL ACTIVITY (MIC): RPMI 1640, 35° C.
Method: (§1) The antifungal activity for the 1-oxorapamycins of this invention was confirmed in a standard pharmacological test procedure which measured the ability of the compound being evaluated to inhibit fungal growth. 1-Oxorapamycin (Compound I), 1-oxorapamycin 42-ester with 3-hydroxy-2-(hydroxymethyl)-2-methylpropionic acid (Compound II), and 42-O-(2-hydroxy)ethyl 1-oxorapamycin (Compound III) were evaluated as representative compounds of this invention. The procedure used and results obtained are briefly described below. A 96 U-bottom microtiter plate was filled (50 μl/well) with RPMI 1640. The compounds to be evaluated were placed in appropriate wells, and serial diluted in successive wells to provide 11 dilutions. The concentrations ranged from 64 through 0.06 μg/ml. An adjusted inoculum of fungi (50 μl) was added to each well and the plates were incubated at 35° C. for 24-48 hours. […] Nystatin and rapamycin were used for the purpose of comparison.

C. parapsilosis GC 3074 = assay: Antifungal activity, microtiter broth dilution MIC; conditions: 24-48 hours; for ANTIFUNGAL ACTIVITY (MIC): RPMI 1640, 35° C.
Method: as §1

C. krussii GC 3067 = assay: Antifungal activity, microtiter broth dilution MIC; conditions: RPMI 1640, 35° C., 24-48 hours
Method: as §1

A. niger GC 3091 = assay: Antifungal activity, microtiter broth dilution MIC; conditions: 24-48 hours; for ANTIFUNGAL ACTIVITY (MIC): RPMI 1640, 35° C.
Method: as §1

A. niger GC 6591 = assay: Antifungal activity, microtiter broth dilution MIC; conditions: 24-48 hours; for ANTIFUNGAL ACTIVITY (MIC): RPMI 1640, 35° C.
Method: as §1

C. lusitaniae GC 3068 = assay: Antifungal activity, microtiter broth dilution MIC; conditions: RPMI 1640, 35° C., 24-48 hours; for MIC: Clavispora lusitaniae
Method: as §1

C. pseudotropicalis 3070 = assay: Antifungal activity, microtiter broth dilution MIC; conditions: RPMI 1640, 35° C., 24-48 hours
Method: as §1

C. parapsilosis GC 3076 = assay: Antifungal activity, microtiter broth dilution MIC; conditions: 24-48 hours; for ANTIFUNGAL ACTIVITY (MIC): RPMI 1640, 35° C.
Method: as §1

C. tropicalis GC 3080 = assay: Antifungal activity, microtiter broth dilution MIC; conditions: 24-48 hours; for ANTIFUNGAL ACTIVITY (MIC): RPMI 1640, 35° C.
Method: as §1

C. albicans GC 3065 = assay: Antifungal activity, microtiter broth dilution MIC; conditions: 24-48 hours; for ANTIFUNGAL ACTIVITY (MIC): RPMI 1640, 35° C.
Method: as §1

C. albicans GC 3064 = assay: Antifungal activity, microtiter broth dilution MIC; conditions: 24-48 hours; for ANTIFUNGAL ACTIVITY (MIC): RPMI 1640, 35° C.
Method: as §1

A. fumigatus GC 3092 = assay: Antifungal activity, microtiter broth dilution MIC; conditions: for ANTIFUNGAL ACTIVITY (MIC): A. fumigatus GC 3092, RPMI 1640, 35° C., 24-48 hours
Method: as §1

C. tropicalis GC 3081 = assay: Antifungal activity, microtiter broth dilution MIC; conditions: 24-48 hours; for ANTIFUNGAL ACTIVITY (MIC): RPMI 1640, 35° C.
Method: as §1

C. albicans GC 3066 = assay: Antifungal activity, microtiter broth dilution MIC; conditions: 24-48 hours; for ANTIFUNGAL ACTIVITY (MIC): RPMI 1640, 35° C.
Method: as §1

SH-SY5Y cells = assay: Neuroregeneration activity, neurite outgrowth; conditions: aphidicolin pretreated, NGF plus test compound, mean ± SEM
Text: The neuroregeneration activity for the compounds of this invention was confirmed in a standard pharmacological test procedure by evaluating 1-oxo-rapamycin (Compound I) as representative compound of this invention, against SH-SY5Y cells in vitro [Gold et al., Exp Neurol 147: 269-278, 1997]. Briefly, SH-SY5Y cells were placed in 6-well plate treated with aphidicolin for 5 days followed by the test compounds using 6-well plates. For controls, wells were untreated, or treated with nerve growth factor (NGF) alone. Test wells were treated with NGF plus compound I or rapamycin. Cells were photographed at 168 hours. Analysis of neuritic lengths was performed on photographic prints using a Houston Instrument HI-PAD digitizing tablet connected to an IBM XT computer with appropriate software (Bioquant IV, R&M Biometrics, Nashville, Tenn.). Mean values for axonal areas were compared using by ANOVA (STATVIEW, Abacus Concepts, Inc., Berkeley, Calif. The following table summarizes the results that were obtained.

[1] = test system: MDA-435 (breast) tumor cell line; assay: Antineoplastic activity, tumor cell growth inhibition (sulforhodamine B); conditions: MDA435 cells, 48 hours
Text: (§2) Antineoplastic activity for the compounds of this invention was confirmed by evaluating the antineoplastic activity of representative compounds of this invention (Compounds I-III) against six tumor cell lines in vitro. Briefly, tumor cells from six cell lines were placed in wells of a 96 well microtiter plate. The following tumor cell lines were used: 3T3 (ovarian), 3T3/H2N (ovarian—resistant to cis-platin), A431 (vulva epidermoid origin), SW620 (colon), SKBR3 (breast), and MDA-435 (breast). The tumors cells were grown in the presence of serial dilutions of the compound to be evaluated for 48 hours, and cell growth determined using a colorimetric procedure (sulforhrodamine B). The inhibition of growth was calculated compared to the number of cells at the time of test compound addition. Results are expressed as an IC50 (μg/ml); N/A indicates the compound was not evaluated against that cell line. The following IC50s was listed on Table 2.

[2] = test system: SW620 (colon) tumor cell line; assay: as above; conditions: 48 hours; for Antineoplastic Activity (IC50): SW620 cells
Text: as §2

[3] = test system: SKBR3 (breast) tumor cell line; assay: as above; conditions: 48 hours; for Antineoplastic Activity (IC50): SKBR3 cells
Text: as §2

[4] = test system: A431 (vulva epidermoid origin) tumor cell line; assay: as above; conditions: 48 hours; for Antineoplastic Activity (IC50): A431 cells
Text: as §2

[5] = test system: 3T3 (ovarian) tumor cell line; assay: as above; conditions: 48 hours
Text: as §2

[6] = test system: 3T3/H2N (ovarian—resistant to cis-platin) tumor cell line; assay: as above; conditions: 3T3/H2N cells, 48 hours
Text: as §2

[7] = C. lusitaniae GC 3068, first listing (r26)

Compound: CO[C@H]1CC2CC[C@@H](C)[C@@](O)(O2)C(=O)C(=O)N2CCCC[C@H]2C(=O)O[C@H]([C@H](C)CC2CC[C@@H](O)[C@H](OC)C2)CC(=O)[C@H](C)/C=C(\C)[C@@H](O)[C@@H](OC)C(=O)[C@H](C)C[C@H](C)C(=O)C/C=C/C=C/1C (stereo partly drawn) [Compound I, 1-Oxo-rapamycin]
- MIC (C. parapsilosis GC 3075; Lodderomyces parapsilosis, GC3075, RPMI 1640, 35° C.): 1 µg/mL (≈ 1.08 µM)
- MIC (C. parapsilosis GC 3074; Lodderomyces parapsilosis, GC3074, RPMI 1640, 35° C.): 2 µg/mL (≈ 2.15 µM)
- MIC (C. krussii GC 3067): 16 µg/mL (≈ 17.2 µM)
- MIC (A. niger GC 3091; Aspergillus niger, GC3091, RPMI 1640, 35° C.): 64 µg/mL (≈ 68.8 µM)
- MIC (A. niger GC 6591; Aspergillus niger, GC6591, RPMI 1640, 35° C.): 64 µg/mL (≈ 68.8 µM)
- MIC (C. lusitaniae GC 3068; GC3068, C. lusitaniae GC 3068, first listing (r26), read-out: ANTIFUNGAL ACTIVITY (MIC)): 0.5 µg/mL (≈ 0.538 µM)
- MIC (C. lusitaniae GC 3068; GC3068, read-out: ANTIFUNGAL ACTIVITY (MIC), C. lusitaniae GC 3068, second listing (r28)): 2 µg/mL (≈ 2.15 µM)
- MIC (C. pseudotropicalis 3070; Kluyveromyces marxianus): 0.5 µg/mL (≈ 0.538 µM)
- MIC (C. parapsilosis GC 3076; Lodderomyces parapsilosis, GC3076, RPMI 1640, 35° C.): 2 µg/mL (≈ 2.15 µM)
- MIC (C. tropicalis GC 3080; Candida tropicalis, GC3080, RPMI 1640, 35° C.): 2 µg/mL (≈ 2.15 µM)
- MIC (C. albicans GC 3065; Candida albicans, GC3065, RPMI 1640, 35° C.): 2 µg/mL (≈ 2.15 µM)
- MIC (C. albicans GC 3064; Candida albicans, GC3064, RPMI 1640, 35° C.): 8 µg/mL (≈ 8.6 µM)
- MIC (A. fumigatus GC 3092; Aspergillus fumigatus, GC3092, read-out: ANTIFUNGAL ACTIVITY (MIC)): 64 µg/mL (≈ 68.8 µM)
- MIC (C. tropicalis GC 3081; Candida tropicalis, GC3081, RPMI 1640, 35° C.): 0.5 µg/mL (≈ 0.538 µM)
- MIC (C. albicans GC 3066; Candida albicans, GC3066, RPMI 1640, 35° C.): 2 µg/mL (≈ 2.15 µM)
- Mean Neurite Lengths after 168 h, Neurite Length (SH-SY5Y cells): 233.7 ± 8.8 μm
- IC50 [1]: 6 µg/mL (≈ 6.45 µM)
- IC50 ([2]; Homo sapiens, SW-620, SW620 cells): 12.7 µg/mL (≈ 13.7 µM)
- IC50 ([3]; Homo sapiens, SK-BR-3, SKBR3 cells): 3.6 µg/mL (≈ 3.87 µM)
- IC50 ([4]; Homo sapiens, A-431, A431 cells): 6.2 µg/mL (≈ 6.67 µM)
- IC50 ([5]; Mus musculus, NIH3T3, 3T3 cells): 0.89 µg/mL (≈ 0.957 µM)
- IC50 [6]: 2.3 µg/mL (≈ 2.47 µM)

Compound: CO[C@H]1CC2CC[C@@H](C)[C@@](O)(O2)C(=O)C(=O)N2CCCC[C@H]2C(=O)O[C@H]([C@H](C)CC2CC[C@@H](OC(=O)C(C)(CO)CO)[C@H](OC)C2)CC(=O)[C@H](C)/C=C(\C)[C@@H](O)[C@@H](OC)C(=O)[C@H](C)C[C@H](C)C(=O)C/C=C/C=C/1C (stereo partly drawn) [Compound II, 1-Oxorapamycin 42-ester with 3-Hydroxy-2-(hydroxymethyl)-2-methylpropionic acid]
- ANTIFUNGAL ACTIVITY (MIC) (C. parapsilosis GC 3075): 2 µg/mL
- ANTIFUNGAL ACTIVITY (MIC) (C. parapsilosis GC 3074): 2 µg/mL
- ANTIFUNGAL ACTIVITY (MIC) (C. krussii GC 3067): 16 µg/mL
- ANTIFUNGAL ACTIVITY (MIC) (A. niger GC 3091): 32 µg/mL
- ANTIFUNGAL ACTIVITY (MIC) (A. niger GC 6591): 64 µg/mL
- ANTIFUNGAL ACTIVITY (MIC) (C. lusitaniae GC 3068; [7]): 1 µg/mL
- ANTIFUNGAL ACTIVITY (MIC) (C. lusitaniae GC 3068; C. lusitaniae GC 3068, second listing (r28)): 1 µg/mL
- ANTIFUNGAL ACTIVITY (MIC) (C. pseudotropicalis 3070): 0.50 µg/mL
- ANTIFUNGAL ACTIVITY (MIC) (C. parapsilosis GC 3076): 1 µg/mL
- ANTIFUNGAL ACTIVITY (MIC) (C. tropicalis GC 3080): 1 µg/mL
- ANTIFUNGAL ACTIVITY (MIC) (C. albicans GC 3065): 2 µg/mL
- ANTIFUNGAL ACTIVITY (MIC) (C. albicans GC 3064): 8 µg/mL
- ANTIFUNGAL ACTIVITY (MIC) (A. fumigatus GC 3092): 64 µg/mL
- ANTIFUNGAL ACTIVITY (MIC) (C. tropicalis GC 3081): 0.50 µg/mL
- ANTIFUNGAL ACTIVITY (MIC) (C. albicans GC 3066): 2 µg/mL
- Antineoplastic Activity (IC50) [1]: 2.8 µg/mL
- Antineoplastic Activity (IC50) [2]: 8.7 µg/mL
- Antineoplastic Activity (IC50) [3]: 1.7 µg/mL
- Antineoplastic Activity (IC50) [4]: 5.5 µg/mL
- Antineoplastic Activity (IC50) ([5]; 3T3 cells): 0.84 µg/mL
- Antineoplastic Activity (IC50) [6]: 3.0 µg/mL

Compound: CO[C@H]1CC2CC[C@@H](C)[C@@](O)(O2)C(=O)C(=O)N2CCCC[C@H]2C(=O)O[C@H]([C@H](C)CC2CC[C@@H](OCCO)[C@H](OC)C2)CC(=O)[C@H](C)/C=C(\C)[C@@H](O)[C@@H](OC)C(=O)[C@H](C)C[C@H](C)C(=O)C/C=C/C=C/1C (stereo partly drawn) [Compound III, 42-O-(2-Hydroxy)ethyl 1-oxorapamycin]
- ANTIFUNGAL ACTIVITY (MIC) (C. parapsilosis GC 3075): 2 µg/mL
- ANTIFUNGAL ACTIVITY (MIC) (C. parapsilosis GC 3074): 2 µg/mL
- ANTIFUNGAL ACTIVITY (MIC) (C. krussii GC 3067): >32 µg/mL
- ANTIFUNGAL ACTIVITY (MIC) (A. niger GC 3091): >32 µg/mL
- ANTIFUNGAL ACTIVITY (MIC) (A. niger GC 6591): >32 µg/mL
- ANTIFUNGAL ACTIVITY (MIC) (C. lusitaniae GC 3068; [7]): 2 µg/mL
- ANTIFUNGAL ACTIVITY (MIC) (C. pseudotropicalis 3070): 2 µg/mL
- ANTIFUNGAL ACTIVITY (MIC) (C. parapsilosis GC 3076): 2 µg/mL
- ANTIFUNGAL ACTIVITY (MIC) (C. tropicalis GC 3080): 2 µg/mL
- ANTIFUNGAL ACTIVITY (MIC) (C. albicans GC 3065): 2 µg/mL
- ANTIFUNGAL ACTIVITY (MIC) (C. albicans GC 3064): 4 µg/mL
- ANTIFUNGAL ACTIVITY (MIC) (A. fumigatus GC 3092): 2 µg/mL
- ANTIFUNGAL ACTIVITY (MIC) (C. tropicalis GC 3081): 2 µg/mL
- ANTIFUNGAL ACTIVITY (MIC) (C. albicans GC 3066): 2 µg/mL
- Antineoplastic Activity (IC50) [2]: 1.9 µg/mL
- Antineoplastic Activity (IC50) [3]: 0.038 µg/mL
- Antineoplastic Activity (IC50) [4]: 0.48 µg/mL

From patent publication US6399625B1, “1-oxorapamycins” (Wyeth, priority 2000, dated 2002)
